{"source": "patent US12707888B2", "about": "“Asymmetric donor-acceptor molecular dyes” (THE UNIVERSITY OF NORTH CAROLINA AT CHARLOTTE, priority 2019, dated 2026)", "key": {"[1]": {"assay": "UV-Vis absorbance, fluorescence emission and quantum yield in organic solvents", "format": "physicochemical", "method": "The absorption, emission, and fluorescence lifetime characteristics of all four TTz dyes were recorded in a variety of organic solvents (FIGS. 7A-7B, Table of FIG. 8). Additionally, HOMO/LUMO levels of the TTz dyes were determined computationally in Spartan 16 using B3LYP/6-31g. Molar absorptivities of all the TTz dyes ranged from 13,000 to 86,000 cm^−1M^−1. […] However, the peak absorbance of Bu2N-TTz-Py in DCM was slightly red-shifted as compared to that of Ph2N-TTz-Py (λmax, abs=429 nm vs λmax, abs=422 nm in DCM), which is attributed to the diphenylamine moiety having weaker donor characteristics. […] Due to the low estimated ground state dipole moments of the TTz dyes (μ=6-8 D), their wavelengths of absorbance remained relatively solvent independent (st. dev.=±11 nm).\n4-pyridine carboxaldehyde, 4-(dibutylamino)benzaldehyde, 4-(diphenylamino)benzaldehyde, terephthalaldehyde, dithiooxamide, and all solvents used for spectroscopic measurements were purchased from Sigma-Aldrich and used without further purification. ^1H and ^13CNMR measurements were obtained with either a JEOL 300 MHz NMR or a JEOL 500 MHz NMR. High resolution mass spectra were obtained using a Thermo Fisher Scientific MSQ Plus Single Quadrupole Mass Spectrometer. Solution-state UV-Vis spectra were collected on a Cary 300 UV-Vis spectrophotometer. Time-resolved measurements were taken on a Jobin Yvon-Spex Fluorolog equipped with a 389 nm diode laser for time-resolved PL decay measurements. Igor Pro 6.3 software was used to fit PL(t) decay data to single/multiple exponential decays. Quantum yields were calculated using 9,10-diphenylanthracene as a reference (quantum yield [ΦF] in cyclohexane=0.97).^40-41 Density functional theory (DFT) calculations were performed with Spartan computational software using B3LYP^42-43 density functional and 6-31G*^44 basis set. Temperature studies were conducted using a 10 μM Bu2N-TTz-Py MeTHF solution placed inside of a Norrell 502 NMR tube and sequentially submerged in the following liquid N2 baths:octanol (−16° C.), acetonitrile (−41° C.), acetone (−94° C.), pentane (−131° C.), MeTHF (−136° C.), and liquid N2 itself (−196° C.). The phosphorescence spectrum of Bu2N-TTz-Py (see S2) was collected similarly at −196° C. by pumping with 389 nm light while inside a liquid nitrogen bath and then probing the emission within 2 sec of removing from the bath. Human embryonic kidney cells (HEK 293T) were a kind gift from Prof. Bryan Dickinson, and Mouse macrophage J774A.1 cells were a kind gift from Prof. Deborah Nelson at the University of Chicago. Cells were cultured in Dulbecco's Modified Eagle's Medium (Invitrogen Corporation, USA) containing 10% heat inactivated Fetal Bovine Serum (FBS) (Invitrogen Corporation, USA), 100 U/mL penicillin, and 100 μg/mL streptomycin. Cells were maintained at 37° C. under 5% CO2."}, "J774.A1 cells": {"system": "J774.A1 cells", "assay": "Cell labeled spectral measurements", "format": "cell-based, Mouse", "method": "FIG. 11C are normalized excitation/emission spectra of 1 μM Bu2N-TTz-Py in PBS buffer with 0.1% TritonX-100 before and after loading into ~0.5×10^5 J774.A1 cells. Excitation spectra (dashed line) were collected at 520 nm and emission spectra (solid line) were collected with 440 nm excitation.\nCell labeled spectral measurements. Excitation and emission spectra were collected by labeling the alveolar macrophage cell line J774.A1 (~0.5×10^5 cells) with 1 μM Bu2N-TTz-Py in phosphate buffered saline (PBS) buffer and 0.1% TritonX-100. Cells were incubated with dye for 10 min at RT, washed thrice with PBS, and dispersed in a cuvette for fluorescent spectral measurements (Fluoromax-4, Horiba Scientific, Edison, NJ, USA). Excitation spectra were collected at 520 nm emission. Emission spectra were collected by exciting at 440 nm. Electrophysiology. Whole cell voltage clamping measurements of 500 nM Bu2N-TTz-Py labeled HEK 293T cells were performed with Axopatch 200A amplifier (Molecular Devices), digitized using an NI-6251 DAQ (National Instruments), and controlled using WinWCP software (Strathclyde Electrophysiology Software). Patch pipettes were pulled using a Sutter P-97 Micropipette puller. Patch pipettes with resistances between 5-10 MOhm were used in voltage clamping experiments. The patch pipette was positioned using an MP325 motorized manipulator (Sutter). Metamorph premier Ver. 7.8.12.0 was linked to an NI-6501 DAQ to enable voltage triggered image acquisition. Extracellular solution composition was 145 mM NaCl, 20 mM glucose, 10 mM HEPES, pH 7.4, 3 mM KCl, 2 mM CaCl2), 1 mM MgCl2 (310 mOsm); and the intracellular solution composition was 115 mM potassium gluconate, 10 mM EGTA tetrapotassium salt, 10 mM HEPES, pH 7.2, 5 mM NaCl, 10 mM KCl, 2 mM ATP disodium salt (290 mOsm)."}, "HEK 293T cells": {"system": "HEK 293T cells", "assay": "Whole-cell patch clamp voltage sensitivity", "format": "cell-based, Human", "settings": "500 nM dye, cells held at −60 mV, 10 mV steps", "method": "Having established its environmental sensitivity and proclivity for membrane localization, it was hypothesized that Bu2N-TTz-Py could orient itself favorably within cell membranes and sense voltage differentials across the membrane. To test the membrane voltage sensitivity of Bu2N-TTz-Py, whole-cell patch clamp electrophysiology was performed on HEK 293T cells labeled with 500 nM Bu2N-TTz-Py. […] Tests concluded that Bu2N-TTz-Py has a voltage sensitivity of approximately 10% ΔF/F per 100 mV. For context, early generation VSDs, such as RH-421, ANNINE-6, and VF2.1.Cl, display maximum voltage sensitivities of 10%-25% ΔF/F per 100 mV.\nCell labeled spectral measurements. Excitation and emission spectra were collected by labeling the alveolar macrophage cell line J774.A1 (~0.5×10^5 cells) with 1 μM Bu2N-TTz-Py in phosphate buffered saline (PBS) buffer and 0.1% TritonX-100. Cells were incubated with dye for 10 min at RT, washed thrice with PBS, and dispersed in a cuvette for fluorescent spectral measurements (Fluoromax-4, Horiba Scientific, Edison, NJ, USA). Excitation spectra were collected at 520 nm emission. Emission spectra were collected by exciting at 440 nm. Electrophysiology. […]"}}}
{"smiles": "CCCCN(CCCC)c1ccc(-c2nc3sc(-c4ccncc4)nc3s2)cc1", "note": "[Bu2N-TTz-Py, 2-(N,N-dibutyl-4-aminophenyl)-5-(4-pyridyl) thiazolo[5,4-d]thiazole]", "values": [{"measurement": "quantum yield ΦMeOH", "setting": "[1]; MeOH, reference 9,10-diphenylanthracene", "value": 0.04}, {"measurement": "QY in aqueous environments", "setting": "[1]; aqueous environments", "value": "low QY"}, {"measurement": "quantum yield Φhex", "setting": "[1]; hex, reference 9,10-diphenylanthracene", "value": 0.93}, {"measurement": "peak absorbance λmax, abs", "setting": "[1]; in DCM", "value": 429, "unit": "nm"}, {"measurement": "peak emission wavelength", "setting": "J774.A1 cells; localized to cell membranes, 440 nm excitation", "value": 483, "unit": "nm"}, {"measurement": "peak excitation wavelength", "setting": "J774.A1 cells; localized to cell membranes, collected at 520 nm emission", "value": 423, "unit": "nm"}, {"measurement": "wavelength of peak emission", "setting": "J774.A1 cells; solution of PBS with 0.1% Triton-X100, before loading into cells", "value": 518, "unit": "nm"}, {"measurement": "voltage sensitivity", "setting": "HEK 293T cells", "value": "approximately 10 % ΔF/F per 100 mV"}]}
